From US10293021B2, “Conjugates and prodrugs for treating cancer and inflammatory diseases” (CENTRE NATIONAL DE LA RECHERCHE SCIENTIFIQUE, priority 2014, dated 2019)
Where a SMILES comes first, the peptide text is derived from it. [ ]: non-standard residue; d: D form. The star is where a group is joined. Dolaproine = CO[C@@H]([C@@H]1CCCN1)[C@@H](C)C(=O)O; Dil = CC[C@H](C)[C@H](NC)[C@@H](CC(=O)O)OC; X1 = C[C@@H](N*)[C@@H](O)c1ccccc1; NMeV = CN[C@H](C(=O)O)C(C)C

Experiments:
[1] = test system: orthotopically grafted human pancreatic tumor of Mia Paca type (Mia PaCa 2-Luc cells); test: Therapeutic efficacy in vivo on a murine model of human pancreatic cancer (two weekly injections, D7 and D14); parameters: species or system Swiss Nude mice; conditions: 2 injections (D7 and D14), echography over 70 days, FIG. 2
Experimental: The therapeutic efficacy of the conjugate of formula (III), as synthesized according to the reaction protocol described in example 1, was evaluated on 6-week-old female Swiss Nude mice (Charles River France Laboratories, l'Arbresle). The animals were acclimatized for 7 days in the laboratory before the experiment. The mice were housed in plastic cages equipped with filtering lids (HEPA filter), in a ventilated cage rack, housed at a temperature of 20±2° C. with a light/dark cycle of 12/12 hours, with free access to water and food ad libitum.
The Mia Paca 2 cells originate from a pancreatic adenocarcinoma from a person. The Mia Paca 2 pancreatic cancer cell line was supplied by the American Type Culture Collection (Rockville, Md.). These cells were chosen since they make it possible to generate tumors of hypoxic nature, reflecting the clinical pathological situation.
These cells were modified to express the luciferase gene (Mia PaCa 2-Luc). The cells were cultured in […] flasks and maintained in a humidified incubator at 37° C. in 5% CO2 with Dulbecco's Modified Eagle Medium (DMEM) supplemented with 10% of fetal calf serum, 2.5% of horse serum, 1% of L-glutamine and 1% of penicillin and streptomycin.
For the implantations, the abdomens of the mice were disinfected with an iodinated povidone solution (Betadine®, ASTA Medica, Belgium). A 1 cm incision was made in the upper left quadrant of the abdomen. The end of the tail of the pancreas was seized and the pancreas and also the spleen were gently externalized in a lateral direction so as to be fully exposed. The needle was inserted into the tail of the pancreas and positioned just in the region of the head of the pancreas. 2×10^6 Mia PaCa 2-Luc cells in 50 μl of PBS were slowly injected using a 27-caliber needle. The spleen was then put back into the appropriate position in the abdomen and the skin and the peritoneum were sutured with a 5.0-diameter resorbable thread. […]
The evolution of the tumor volume was monitored by echography. […]

[2] = test system: orthotopically grafted human breast tumor of MDA-MB-231 type (MDA-MB-231-Luc cells); test: Therapeutic efficacy in vivo on a murine model of human breast cancer; parameters: species or system Balb/c Nude mice
Experimental: The therapeutic efficacy of the conjugate of formula (III), as synthesized according to the reaction protocol described in example 1, was evaluated on 6-week-old female Balb/c Nude mice (Charles River France Laboratories—L'Arbresle) as indicated in example 3.
The MDA-MB-231 cells originate from a mammary adenocarcinoma from a person. The MDA-MB-231 mammary cancer cell line was supplied by Caliper LifeSciences (Roissy, France). These cells were chosen because they make it possible to generate tumors of hypoxic nature, reflecting the clinical pathological situation.
These cells are modified to express the luciferase gene. The cells were cultured in […] flasks and maintained in a humidified incubator at 37° C. under an atmosphere consisting of air, with Eagle's Minimal Essential Medium (EMEM) supplemented with 10% of fetal calf serum, 1% of L-glutamine, 1% of sodium pyruvate, 1% of non-essential amino acids, 2% of sodium bicarbonate and 1% of penicillin and streptomycin.
For the implantations, the abdomens of the mice were disinfected with an iodinated povidone solution (Betadine®, ASTA Medica, Belgium). The needle was inserted into the subcutaneous space, at the level of the lower left teat. 2×10^6 MDA-MB-231-Luc cells in 100 μl of PBS was slowly injected using a 27-caliber needle. The needle was then slowly withdrawn. For this, the mice will be anesthetized by inhalation of isoflurane (2% in air).
The mice (6 animals per group) received a treatment 15 days after the tumor implantations. The intravenous injections were carried out once a week for 5 weeks with doses of 4 mg/kg of conjugate of formula (III) (D15, D22, D29, D36 and D43). The control groups were treated either with MMAE alone with a dose of 0.3 mg/kg, or with the excipient consisting of a mixture of DMSO and PBS (5%/95%).
The evolution of the tumor volume was monitored by 3D echography. The measurements were carried out as described in example 2, on days 7, 11, 15, 19, 22, 25, 27, 29, 32, 34, 36, 39, 43 and 50.

Structure (SMILES)	evolution of the tumor volume ([1]; 0.3 mg/kg intravenous)	evolution of the tumor volume (antitumor activity versus control animals) ([2]; MMAE alone 0.3 mg/kg (FIG. 4 legend: 0.5 mg/kg) intravenous once a week for 5 weeks, FIG. 4 panel B)	evolution of the tumor volume ([1]; 2 mg/kg intravenous)	evolution of the tumor volume ([1]; 4 mg/kg intravenous)	visible side effects ([2]; 4 mg/kg intravenous once a week for 5 weeks)	evolution of the tumor volume ([2]; 4 mg/kg intravenous once a week for 5 weeks (D15-D43), echography for 50 days, FIG. 4 panel C)
CC[C@H](C)[C@@H]([C@@H](CC(=O)N1CCC[C@H]1[C@H](OC)[C@@H](C)C(=O)N[C@H](C)[C@@H](O)c1ccccc1)OC)N(C)C(=O)[C@@H](NC(=O)[C@@H](NC)C(C)C)C(C)C [MMAE, monomethyl auristatin E, reference compound] (H-[NMeV]V[Dil][Dolaproine]-X1)	significant increase in the tumor volume is observed starting from day 35	only a very modest antitumor activity	–	–	–	–
CC[C@@H](C)[C@H]([C@H](CC(=O)N1CCC[C@@H]1[C@@H](OC)[C@H](C)C(=O)N[C@@H](C)[C@H](O)c1ccccc1)OC)N(C)C(=O)[C@H](NC(=O)[C@@H](C(C)C)N(C)C(=O)OC(Cc1cn(CCOCCOCCOCCOCCOCCOCCOCCOCCOCCOCCNC(=O)CCCCCN2C(=O)C=CC2=O)nn1)c1ccc(O[C@@H]2OC(C(=O)O)[C@@H](O)[C@H](O)C2O)c([N+](=O)[O-])c1)C(C)C (stereo partly drawn) [conjugate of formula (III)]	–	–	the progression of the tumor volume is slower than with the control or the non-functionalized MMAE	total absence of tumor growth	without visible side effects	total and long-lasting regression of the tumor
